Test results as given in patent US20070128217A1 (priority 2003, published 2007).

Tests used:
[1] = test system: rabbit serum obtained by immunizing a rabbit with the SARS-CoV strain Frankfurt 1; type: binding; set-up: Binding of a rabbit serum to linear peptides / Binding of a rabbit serum to looped peptides / Rabbit serum linear peptides / Rabbit serum looped peptides / Binding of a rabbit serum to linear peptides of protein N of SARS-CoV Urbani (Rabbit serum linear peptides) / Binding of a rabbit serum to looped/cyclic peptides of protein N of SARS-CoV Urbani (Rabbit serum looped peptides): unit not given here
[2] = test system: control sera (pooled serum of ten healthy LUMC hospital workers; commercial negative donor pooled serum from the Dutch bloodbank); type: binding, human; set-up: Binding of Control serum LUMC to linear peptides / Binding of Control serum Blood-bank to linear peptides / Binding of Control serum LUMC to looped peptides / Binding of Control Serum Blood-Bank to Looped peptides / Binding of Control serum LUMC to linear peptides of the protein M of SARS-CoV Urbani / Binding of Control serum Blood-bank to linear peptides of the protein M of SARS-CoV Urbani / Binding of Control serum LUMC to looped peptides of the protein M of SARS-CoV Urbani / Binding of Control Serum Blood-Bank to Looped peptides of the protein M of SARS-CoV Urbani: unit not given here
[3] = test system: antibodies in sera from SARS patients (sera 1a, 1b, 2, 6, 37, 62, London, SARS-yellow, SARS-green); type: binding, human; set-up: Binding of serum 6 to linear peptides of protein X1 of SARS-CoV Urbani / Binding of serum 37 to linear peptides of protein X1 of SARS-CoV Urbani / Binding of serum 6 to looped/cyclic peptide (PEPSCAN-ELISA) / Binding of serum 37 to looped/cyclic peptide (PEPSCAN-ELISA) / Binding of serum 37 to looped/cyclic peptides of protein X1 of SARS-CoV Urbani / Binding of serum 6 to linear peptides of protein X2 / Binding of serum 37 to linear peptides of protein X2 / Binding of serum 37 to looped/cyclic peptides of protein X2 of SARS-CoV Urbani / Binding of serum 6 to linear peptides of protein M of SARS-CoV Urbani / Binding of serum 37 to linear peptides of protein M of SARS-CoV Urbani / Binding of serum 6 to looped/cyclic peptides of protein M of SARS-CoV Urbani / Binding of serum 37 to looped/cyclic peptides of protein M of SARS-CoV Urbani / Binding of serum 6 to linear peptides of protein X3 of SARS-CoV Urbani / Binding of serum 37 to linear peptides of protein X3 of SARS-CoV Urbani / Binding of serum 37 to looped/cyclic peptides of protein X3 of SARS-CoV Urbani / Binding of serum 6 to linear peptides of protein X4 of SARS-CoV Urbani / Binding of serum 37 to linear peptides of protein X4 of SARS-CoV Urbani / Binding of serum 37 to looped/cyclic peptides of protein X4 of SARS-CoV Urbani / Binding of serum 6 to linear peptides of protein X5 of SARS-CoV Urbani / Binding of serum 37 to linear peptides of protein X5 of SARS-CoV Urbani / Binding of serum 37 to looped/cyclic peptides of protein X5 of SARS-CoV Urbani / Binding of serum 6 to linear peptides of protein N of SARS-CoV Urbani / Binding of serum 37 to linear peptides of protein N of SARS-CoV Urbani / Binding of serum 6 to linear peptide (PEPSCAN-ELISA) / Binding of serum 1a to looped/cyclic peptides of protein N of SARS-CoV Urbani / Binding of serum 1b to looped/cyclic peptides of protein N of SARS-CoV Urbani / Binding of serum 2 to looped/cyclic peptides of protein N of SARS-CoV Urbani / Binding of serum 6 to looped/cyclic peptides of protein N of SARS-CoV Urbani / Binding of serum 37 to looped/cyclic peptides of protein N of SARS-CoV Urbani / Binding of serum 62 to looped/cyclic peptides of protein N of SARS-CoV Urbani / Binding of serum London to looped/cyclic peptides of protein N of SARS-CoV Urbani / Binding of serum SARS-green to looped/cyclic peptides of protein N of SARS-CoV Urbani: unit not given here

GMEAQFLYLYALIYF
0.2: Binding of serum London to linear peptides of protein X1 of SARS-CoV Urbani [3] | Binding of serum London to looped/cyclic peptide (PEPSCAN-ELISA) [3]
0.1: Binding of a rabbit serum to linear peptides [1] | Binding of serum SARS-green to linear peptides of protein X1 of SARS-CoV Urbani [3]
0.8: Binding of Control serum LUMC to looped peptides [2] | Binding of serum 1a to linear peptides of protein X1 of SARS-CoV Urbani [3]
0.5: Binding of Control Serum Blood-Bank to Looped peptides [2] | Binding of serum 2 to looped/cyclic peptide (PEPSCAN-ELISA) [3] | Binding of serum 6 to linear peptides of protein X1 of SARS-CoV Urbani [3] | Binding of serum 37 to linear peptides of protein X1 of SARS-CoV Urbani [3] | Binding of serum 62 to looped/cyclic peptide (PEPSCAN-ELISA) [3]
0.6: Binding of a rabbit serum to looped peptides [1] | Binding of Control serum LUMC to linear peptides [2] | Binding of serum 1a to looped/cyclic peptide (PEPSCAN-ELISA) [3] | Binding of serum 1b to linear peptides of protein X1 of SARS-CoV Urbani [3] | Binding of serum 2 to linear peptides of protein X1 of SARS-CoV Urbani [3]
0.4: Binding of Control serum Blood-bank to linear peptides [2] | Binding of serum 1b to looped/cyclic peptide (PEPSCAN-ELISA) [3] | Binding of serum 37 to looped/cyclic peptide (PEPSCAN-ELISA) [3] | Binding of serum 62 to linear peptides of protein X1 of SARS-CoV Urbani [3] | Binding of serum SARS-yellow to looped/cyclic peptide (PEPSCAN-ELISA) [3]
0.3: Binding of serum 6 to looped/cyclic peptide (PEPSCAN-ELISA) [3] | Binding of serum SARS-green to looped/cyclic peptide (PEPSCAN-ELISA) [3] | Binding of serum SARS-yellow to linear peptides of protein X1 of SARS-CoV Urbani [3]

PKFTTSLSLHKLLQT
0.2: Binding of a rabbit serum to linear peptides [1]
0.3: Binding of serum 2 to looped/cyclic peptides of protein X2 of SARS-CoV Urbani [3] | Binding of serum 6 to linear peptides of protein X2 [3] | Binding of serum 6 to looped/cyclic peptides of protein X2 of SARS-CoV Urbani [3] | Binding of serum London to looped/cyclic peptides of protein X2 of SARS-CoV Urbani [3] | Binding of serum SARS-green to looped/cyclic peptides of protein X2 of SARS-CoV Urbani [3] | Binding of serum SARS-yellow to linear peptides of protein X2 [3] | Binding of serum SARS-yellow to looped/cyclic peptides of protein X2 of SARS-CoV Urbani [3]
0.4: Binding of a rabbit serum to looped peptides [1] | Binding of Control serum LUMC to linear peptides [2] | Binding of Control serum LUMC to looped peptides [2] | Binding of serum 1b to linear peptides of protein X2 [3] | Binding of serum 1b to looped/cyclic peptides of protein X2 of SARS-CoV Urbani [3] | Binding of serum 37 to looped/cyclic peptides of protein X2 of SARS-CoV Urbani [3] | Binding of serum London to linear peptides of protein X2 [3]
0.7: Binding of Control Serum Blood-Bank to Looped peptides [2] | Binding of Control serum Blood-bank to linear peptides [2]
0.5: Binding of serum 1a to looped/cyclic peptides of protein X2 of SARS-CoV Urbani [3] | Binding of serum 2 to linear peptides of protein X2 [3] | Binding of serum 37 to linear peptides of protein X2 [3] | Binding of serum SARS-green to linear peptides of protein X2 [3]
0.6: Binding of serum 1a to linear peptides of protein X2 [3] | Binding of serum 62 to linear peptides of protein X2 [3] | Binding of serum 62 to looped/cyclic peptides of protein X2 of SARS-CoV Urbani [3]

IVGLMWLSYFVASFR
0.7: Binding of Control Serum Blood-Bank to Looped peptides of the protein M of SARS-CoV Urbani [2] | Binding of serum 1a to looped/cyclic peptides of protein M of SARS-CoV Urbani [3] | Binding of serum 6 to looped/cyclic peptides of protein M of SARS-CoV Urbani [3] | Binding of serum 37 to looped/cyclic peptides of protein M of SARS-CoV Urbani [3] | Binding of serum 62 to linear peptides of protein M of SARS-CoV Urbani [3] | Binding of serum 62 to looped/cyclic peptides of protein M of SARS-CoV Urbani [3]
0.4: Binding of serum 1b to linear peptides of protein M of SARS-CoV Urbani [3]
0.3: Rabbit serum linear peptides [1] | Binding of serum 6 to linear peptides of protein M of SARS-CoV Urbani [3] | Binding of serum London to linear peptides of protein M of SARS-CoV Urbani [3]
0.2: Binding of Control serum LUMC to linear peptides of the protein M of SARS-CoV Urbani [2] | Binding of serum London to looped/cyclic peptides of protein M of SARS-CoV Urbani [3] | Binding of serum SARS-green to linear peptides of protein M of SARS-CoV Urbani [3]
0.5: Rabbit serum looped peptides [1] | Binding of Control serum Blood-bank to linear peptides of the protein M of SARS-CoV Urbani [2] | Binding of serum 1b to looped/cyclic peptides of protein M of SARS-CoV Urbani [3] | Binding of serum 2 to linear peptides of protein M of SARS-CoV Urbani [3] | Binding of serum 37 to linear peptides of protein M of SARS-CoV Urbani [3]
1.0: Binding of serum 2 to looped/cyclic peptides of protein M of SARS-CoV Urbani [3]
0.6: Binding of Control serum LUMC to looped peptides of the protein M of SARS-CoV Urbani [2] | Binding of serum 1a to linear peptides of protein M of SARS-CoV Urbani [3] | Binding of serum SARS-yellow to looped/cyclic peptides of protein M of SARS-CoV Urbani [3]
0.1: Binding of serum SARS-green to looped/cyclic peptides of protein M of SARS-CoV Urbani [3] | Binding of serum SARS-yellow to linear peptides of protein M of SARS-CoV Urbani [3]

TSRTLSYYKLGASQR
0.9: Binding of Control serum Blood-bank to linear peptides of the protein M of SARS-CoV Urbani [2] | Binding of serum 6 to linear peptides of protein M of SARS-CoV Urbani [3] | Binding of serum SARS-yellow to looped/cyclic peptides of protein M of SARS-CoV Urbani [3]
0.8: Binding of Control serum LUMC to looped peptides of the protein M of SARS-CoV Urbani [2]
0.5: Binding of serum 62 to linear peptides of protein M of SARS-CoV Urbani [3] | Binding of serum London to linear peptides of protein M of SARS-CoV Urbani [3] | Binding of serum SARS-yellow to linear peptides of protein M of SARS-CoV Urbani [3]
1.0: Binding of Control serum LUMC to linear peptides of the protein M of SARS-CoV Urbani [2]
0.6: Binding of Control Serum Blood-Bank to Looped peptides of the protein M of SARS-CoV Urbani [2] | Binding of serum 37 to looped/cyclic peptides of protein M of SARS-CoV Urbani [3] | Binding of serum 62 to looped/cyclic peptides of protein M of SARS-CoV Urbani [3]
1.3: Binding of serum 6 to looped/cyclic peptides of protein M of SARS-CoV Urbani [3]
0.3: Rabbit serum linear peptides [1] | Binding of serum 1b to looped/cyclic peptides of protein M of SARS-CoV Urbani [3] | Binding of serum SARS-green to looped/cyclic peptides of protein M of SARS-CoV Urbani [3]
1.1: Rabbit serum looped peptides [1]
0.7: Binding of serum 1a to linear peptides of protein M of SARS-CoV Urbani [3] | Binding of serum 1a to looped/cyclic peptides of protein M of SARS-CoV Urbani [3] | Binding of serum 1b to linear peptides of protein M of SARS-CoV Urbani [3] | Binding of serum 2 to linear peptides of protein M of SARS-CoV Urbani [3] | Binding of serum 2 to looped/cyclic peptides of protein M of SARS-CoV Urbani [3] | Binding of serum 37 to linear peptides of protein M of SARS-CoV Urbani [3] | Binding of serum London to looped/cyclic peptides of protein M of SARS-CoV Urbani [3] | Binding of serum SARS-green to linear peptides of protein M of SARS-CoV Urbani [3]

KVLPFHRWHTMVQTC
0.2: Binding of serum SARS-yellow to linear peptides of protein X5 of SARS-CoV Urbani [3]
0.3: Binding of serum SARS-yellow to looped/cyclic peptides of protein X5 of SARS-CoV Urbani [3]
0.6: Rabbit serum linear peptides [1] | Binding of Control Serum Blood-Bank to Looped peptides [2] | Binding of Control serum Blood-bank to linear peptides [2] | Binding of serum 1b to linear peptides of protein X5 of SARS-CoV Urbani [3] | Binding of serum 2 to looped/cyclic peptides of protein X5 of SARS-CoV Urbani [3] | Binding of serum 37 to looped/cyclic peptides of protein X5 of SARS-CoV Urbani [3] | Binding of serum 62 to looped/cyclic peptides of protein X5 of SARS-CoV Urbani [3] | Binding of serum SARS-green to linear peptides of protein X5 of SARS-CoV Urbani [3]
0.9: Binding of serum 1a to linear peptides of protein X5 of SARS-CoV Urbani [3]
0.4: Binding of Control serum LUMC to linear peptides [2] | Binding of serum London to looped/cyclic peptides of protein X5 of SARS-CoV Urbani [3] | Binding of serum SARS-green to looped/cyclic peptides of protein X5 of SARS-CoV Urbani [3]
1.2: Binding of serum London to linear peptides of protein X5 of SARS-CoV Urbani [3]
0.5: Rabbit serum looped peptides [1] | Binding of Control serum LUMC to looped peptides [2] | Binding of serum 6 to linear peptides of protein X5 of SARS-CoV Urbani [3]
0.7: Binding of serum 1a to looped/cyclic peptides of protein X5 of SARS-CoV Urbani [3] | Binding of serum 1b to looped/cyclic peptides of protein X5 of SARS-CoV Urbani [3] | Binding of serum 2 to linear peptides of protein X5 of SARS-CoV Urbani [3] | Binding of serum 6 to looped/cyclic peptides of protein X5 of SARS-CoV Urbani [3] | Binding of serum 37 to linear peptides of protein X5 of SARS-CoV Urbani [3] | Binding of serum 62 to linear peptides of protein X5 of SARS-CoV Urbani [3]
